# Tested on: Plasmodium falciparum
# Experiment: Antiplasmodial activity against chloroquine-sensitive Plasmodium falciparum D6 by LDH reporter assay
# Format: functional, organism-based
row,SMILES,IC50 [nM]
1,N=C(N)c1ccc(OCc2ccccc2COc2ccc(C(=N)N)cc2)cc1,313
2,N=C(N)c1ccc(COc2ccccc2OCc2ccc(C(=N)N)cc2)cc1,671
3,N=C(N)c1ccc(NC(=O)CCCCC(=O)Nc2ccc(C(=N)N)cc2)cc1,640
4,N=C(N)c1ccc(OCc2cccc(COc3ccc(C(=N)N)cc3)c2)cc1,85
5,c1cc(C2=NCCN2)ccc1CC1CCN(c2ccc(C3=NCCN3)cc2)CC1,402
6,c1cc(N2CCCN(c3ccc(C4=NCCN4)cc3)CC2)ccc1C1=NCCN1,148
7,c1cc(N2CCN(c3ccc(C4=NCCN4)cc3)CC2)ccc1C1=NCCN1,89
8,c1ccc2[nH]c(-c3ccc(N4CCN(c5ccc(-c6nc7ccccc7[nH]6)cc5)CC4)cc3)nc2c1,4880
9,N=C(N)c1ccc(OCc2ccc(COc3ccc(C(=N)N)cc3)cc2)cc1,114
10,c1cc(N2CCCN(c3ccc(C4=NCCCN4)cc3)CC2)ccc1C1=NCCCN1,5110
11,C(=C1CCN(c2ccc(C3=NCCN3)cc2)CC1)c1ccc(C2=NCCN2)cc1,840
12,c1cc(N2CCN(c3ccc(C4=NCCCN4)cc3)CC2)ccc1C1=NCCCN1,106
13,CCCCCCCCNC(=N)c1ccc(N2CCN(c3ccc(C(=N)NCCCCCCCC)cc3)CC2)cc1,138
14,CCCCCCCCCCCCNC(=N)c1ccc(N2CCN(c3ccc(C(=N)NCCCCCCCCCCCC)cc3)CC2)cc1,3890
15,CCCCCCCCCNC(=N)c1ccc(N2CCN(c3ccc(C(=N)NCCCCCCCCC)cc3)CC2)cc1,88
16,CCCCCCCCCCNC(=N)c1ccc(N2CCN(c3ccc(C(=N)NCCCCCCCCCC)cc3)CC2)cc1,75
17,CCCCCCCNC(=N)c1ccc(N2CCN(c3ccc(C(=N)NCCCCCCC)cc3)CC2)cc1,48
18,CCCCCNC(=N)c1ccc(N2CCN(c3ccc(C(=N)NCCCCC)cc3)CC2)cc1,21
19,CCCCCCNC(=N)c1ccc(N2CCN(c3ccc(C(=N)NCCCCCC)cc3)CC2)cc1,35
20,N=C(N)c1ccc(OCCCCCOc2ccc(C(=N)N)cc2)cc1 [PENTAMIDINE],278

# Further lines, results first:
row,IC50 [nM],SMILES
1,1600,N=C(N)c1ccc(N2CCCN(c3ccc(C(=N)N)cc3)CC2)cc1
2,306,N=C(NC1CC1)c1ccc(N2CCCN(c3ccc(C(=N)NC4CC4)cc3)CC2)cc1
3,18,CCCCNC(=N)c1ccc(N2CCCN(c3ccc(C(=N)NCCCC)cc3)CC2)cc1
4,358,N=C(NC1CC1)c1ccc(N2CCN(c3ccc(C(=N)NC4CC4)cc3)CC2)cc1
5,42,CC(C)CCNC(=N)c1ccc(N2CCN(c3ccc(C(=N)NCCC(C)C)cc3)CC2)cc1
6,36,N=C(NC1CCCCCC1)c1ccc(N2CCN(c3ccc(C(=N)NC4CCCCCC4)cc3)CC2)cc1
7,8800,N=C(NCCCO)c1ccc(N2CCN(c3ccc(C(=N)NCCCO)cc3)CC2)cc1
8,7,N=C(NC1CCC1)c1ccc(N2CCN(c3ccc(C(=N)NC4CCC4)cc3)CC2)cc1
9,69,CCC(C)CNC(=N)c1ccc(N2CCN(c3ccc(C(=N)NCC(C)CC)cc3)CC2)cc1 (centres undefined)
10,8320,N=C(NO)c1ccc(N2CCN(c3ccc(C(=N)NO)cc3)CC2)cc1
11,124,CCNC(=N)c1ccc(N2CCN(c3ccc(C(=N)NCC)cc3)CC2)cc1
12,862,CNC(=N)c1ccc(N2CCN(c3ccc(C(=N)NC)cc3)CC2)cc1
13,29,CCCNC(=N)c1ccc(N2CCN(c3ccc(C(=N)NCCC)cc3)CC2)cc1
14,55,N=C(NC1CCCCCCC1)c1ccc(N2CCN(c3ccc(C(=N)NC4CCCCCCC4)cc3)CC2)cc1

# Source: ChEMBL document CHEMBL1140635, “Computational modeling tools for the design of potent antimalarial bisbenzamidines: overcoming the antimalarial potential of pentamidine” (Bioorg Med Chem, 2007)
